Data reported in patent US10272182B2, “Copolymer membrane for high-dose chemotherapy delivery during transarterial chemoembolization” (THE REGENTS OF THE UNIVERSITY OF CALIFORNIA, priority 2014, dated 2019).

Assay: Hepatic artery IAC infusion of dox in swine without CF device
Type: in vivo
Details: 50 mg dox (2 mg/mL) into the liver via hepatic artery over 10 minutes
Procedure: In vivo pilot experiments on swine were performed to establish an animal model and proof-of-concept for toxicity reduction. Farm swine (n=3, 30 kg) received humane care in compliance with the UCSF IACUC. Interventional procedures included anesthesia (Isoflurane), X-ray fluoroscopy, percutaneous transarterial catheterization of the hepatic artery, and percutaneous transveous catheterization of the vena cava. Heparin was […] in order to prevent thrombus formation. Heart rate, electrocardiogram, and O2-saturation were continuously monitored during the interventions. Animals were euthanized immediately after the procedures.
In the second animal, a CF device was not deployed, but rather a hepatic artery IAC infusion of dox was performed with subsequent sampling of blood at various times and positions throughout the venous system. This was performed in order to validate a hepatic dox IAC pharmacokinetic experimental model, measuring venous dox concentrations over time via a developed liquid chromatography-mass spectroscopy assay (Pacific Biolabs, Hercules, Calif.). In this animal, a microcatheter was advanced into the hepatic artery via standard access from a right femoral artery approach using fluoroscopy and contrast as needed. Via percutaneous UV access, central catheters were positioned with tips in the suprahepatic IVC and right hepatic vein. […]

hemodynamic changes during the procedure: no hemodynamic changes
Compound: COc1cccc2c1C(=O)c1c(O)c3c(c(O)c1C2=O)C[C@@](O)(C(=O)CO)C[C@@H]3O[C@H]1C[C@H](N)[C@H](O)[C@H](C)O1 [dox, doxorubicin]
